Experimental data reported in ChEMBL document CHEMBL3885881, “DrugMatrix”.

Species on record: Rattus norvegicus
Assay: DrugMatrix - Regimen: Daily Repeat
Format: toxicity, organism-based, Sprague-Dawley
Set-up: regimen Daily Repeat, gender Male, age 6-8 weeks
Conditions: in vivo, po, route oral GAVAGE, vehicle .5 % CMC; for ABSOLUTE BASOPHIL / ABSOLUTE EOSINOPHIL / ABSOLUTE LYMPHOCYTE / ABSOLUTE MONOCYTE / ABSOLUTE SEGMENTED NEUTROPHIL / BASOPHIL / EOSINOPHIL / ERYTHROCYTE COUNT / HEMATOCRIT / HEMOGLOBIN / LEUKOCYTE COUNT / LYMPHOCYTE / MEAN CORPUSCULAR HEMOGLOBIN / MEAN CORPUSCULAR HEMOGLOBIN CONCENTRATION / MEAN CORPUSCULAR VOLUME / MONOCYTE / NEUTROPHIL / NUCLEATED RED BLOOD CELLS / PLATELET COUNT: tissue Blood; for ALANINE AMINOTRANSFERASE / ALBUMIN / ALKALINE PHOSPHATASE / ASPARTATE AMINOTRANSFERASE / BLOOD UREA NITROGEN / CARBON DIOXIDE / CHLORIDE / CHOLESTEROL / CREATINE PHOSPHOKINASE / CREATININE / GLUCOSE / LACTATE DEHYDROGENASE / LIPASE / PHOSPHORUS / POTASSIUM / SODIUM / TOTAL BILIRUBIN / TOTAL PROTEIN / URIC ACID: tissue Plasma
[1] = 200 mg/kg, 72 h, dose level Low, time 3 day
[2] = 200 mg/kg, 120 h, dose level Low, time 5 day
[3] = 1300 mg/kg, 72 h, dose level High, time 3 day
[4] = 1300 mg/kg, 120 h, dose level High, time 5 day

NC(=O)c1ccccc1O [SALICYLAMIDE]
ABSOLUTE BASOPHIL [1]: 0 CELLS/uL
ABSOLUTE EOSINOPHIL [1]: 126.67 CELLS/uL
ABSOLUTE LYMPHOCYTE [1]: 13749 CELLS/uL
ABSOLUTE MONOCYTE [1]: 274.67 CELLS/uL
ABSOLUTE SEGMENTED NEUTROPHIL [1]: 2049.67 CELLS/uL
BASOPHIL [1]: 0%
EOSINOPHIL [1]: 0.67%
ERYTHROCYTE COUNT [1]: 5.79 x10E6/uL
HEMATOCRIT [1]: 37.07%
HEMOGLOBIN [1]: 13.9 G/DL
LEUKOCYTE COUNT [1]: 16.2 x10E3/uL
LYMPHOCYTE [1]: 85%
MEAN CORPUSCULAR HEMOGLOBIN [1]: 24.03 pg
MEAN CORPUSCULAR HEMOGLOBIN CONCENTRATION [1]: 37.5 G/DL
MEAN CORPUSCULAR VOLUME [1]: 64.07 fL
MONOCYTE [1]: 1.67%
NEUTROPHIL [1]: 12.67%
NUCLEATED RED BLOOD CELLS [1]: 0 /100WBC
PLATELET COUNT [1]: 1342.33 x10E3/uL
ALANINE AMINOTRANSFERASE [1]: 47 u/L
ALBUMIN [1]: 4.23 G/DL
ALKALINE PHOSPHATASE [1]: 337 u/L
ASPARTATE AMINOTRANSFERASE [1]: 92 u/L
BLOOD UREA NITROGEN [1]: 14.67 mg/dL
CARBON DIOXIDE [1]: 28.67 mmol/L
CHLORIDE [1]: 102.33 MEQ/L
CHOLESTEROL [1]: 91.33 mg/dL
CREATINE PHOSPHOKINASE [1]: 270 u/L
CREATININE [1]: 0.24 mg/dL
GLUCOSE [1]: 149.67 mg/dL
LACTATE DEHYDROGENASE [1]: 413.33 u/L
LIPASE [1]: 9.67 u/L
PHOSPHORUS [1]: 12.53 mg/dL
POTASSIUM [1]: 7.01 MEQ/L
SODIUM [1]: 146.23 MEQ/L
TOTAL BILIRUBIN [1]: 0.2 mg/dL
TOTAL PROTEIN [1]: 5.93 G/DL
URIC ACID [1]: 1.77 mg/dL
ABSOLUTE BASOPHIL [2]: 0 CELLS/uL
ABSOLUTE EOSINOPHIL [2]: 0 CELLS/uL
ABSOLUTE LYMPHOCYTE [2]: 13314 CELLS/uL
ABSOLUTE MONOCYTE [2]: 96.33 CELLS/uL
ABSOLUTE SEGMENTED NEUTROPHIL [2]: 1389.67 CELLS/uL
BASOPHIL [2]: 0%
EOSINOPHIL [2]: 0%
ERYTHROCYTE COUNT [2]: 5.67 x10E6/uL
HEMATOCRIT [2]: 34.73%
HEMOGLOBIN [2]: 13.53 G/DL
LEUKOCYTE COUNT [2]: 14.8 x10E3/uL
LYMPHOCYTE [2]: 90%
MEAN CORPUSCULAR HEMOGLOBIN [2]: 24 pg
MEAN CORPUSCULAR HEMOGLOBIN CONCENTRATION [2]: 39 G/DL
MEAN CORPUSCULAR VOLUME [2]: 61.53 fL
MONOCYTE [2]: 0.67%
NEUTROPHIL [2]: 9.33%
NUCLEATED RED BLOOD CELLS [2]: 0 /100WBC
PLATELET COUNT [2]: 1300.67 x10E3/uL
ALANINE AMINOTRANSFERASE [2]: 41.67 u/L
ALBUMIN [2]: 4.13 G/DL
ALKALINE PHOSPHATASE [2]: 340 u/L
ASPARTATE AMINOTRANSFERASE [2]: 77.67 u/L
BLOOD UREA NITROGEN [2]: 15.33 mg/dL
CARBON DIOXIDE [2]: 27 mmol/L
CHLORIDE [2]: 104 MEQ/L
CHOLESTEROL [2]: 78.33 mg/dL
CREATINE PHOSPHOKINASE [2]: 235.33 u/L
CREATININE [2]: 0.22 mg/dL
GLUCOSE [2]: 151 mg/dL
LACTATE DEHYDROGENASE [2]: 176 u/L
LIPASE [2]: 9.33 u/L
PHOSPHORUS [2]: 12.43 mg/dL
POTASSIUM [2]: 6.83 MEQ/L
SODIUM [2]: 145.3 MEQ/L
TOTAL BILIRUBIN [2]: 0.13 mg/dL
TOTAL PROTEIN [2]: 5.83 G/DL
URIC ACID [2]: 1.57 mg/dL
ABSOLUTE BASOPHIL [3]: 0 CELLS/uL
ABSOLUTE EOSINOPHIL [3]: 0 CELLS/uL
ABSOLUTE LYMPHOCYTE [3]: 15293.5 CELLS/uL
ABSOLUTE MONOCYTE [3]: 351 CELLS/uL
ABSOLUTE SEGMENTED NEUTROPHIL [3]: 1905.5 CELLS/uL
BASOPHIL [3]: 0%
EOSINOPHIL [3]: 0%
ERYTHROCYTE COUNT [3]: 6 x10E6/uL
HEMATOCRIT [3]: 36.9%
HEMOGLOBIN [3]: 14.4 G/DL
LEUKOCYTE COUNT [3]: 17.55 x10E3/uL
LYMPHOCYTE [3]: 87%
MEAN CORPUSCULAR HEMOGLOBIN [3]: 24 pg
MEAN CORPUSCULAR HEMOGLOBIN CONCENTRATION [3]: 39 G/DL
MEAN CORPUSCULAR VOLUME [3]: 61.55 fL
MONOCYTE [3]: 2%
NEUTROPHIL [3]: 11%
NUCLEATED RED BLOOD CELLS [3]: 0 /100WBC
PLATELET COUNT [3]: 1429 x10E3/uL
ALANINE AMINOTRANSFERASE [3]: 90 u/L
ALBUMIN [3]: 4.2 G/DL
ALKALINE PHOSPHATASE [3]: 469 u/L
ASPARTATE AMINOTRANSFERASE [3]: 83 u/L
BLOOD UREA NITROGEN [3]: 14 mg/dL
CARBON DIOXIDE [3]: 30.5 mmol/L
CHLORIDE [3]: 101 MEQ/L
CHOLESTEROL [3]: 71.5 mg/dL
CREATINE PHOSPHOKINASE [3]: 167.5 u/L
CREATININE [3]: 0.12 mg/dL
GLUCOSE [3]: 146.5 mg/dL
LACTATE DEHYDROGENASE [3]: 166 u/L
LIPASE [3]: 9.5 u/L
PHOSPHORUS [3]: 12.5 mg/dL
POTASSIUM [3]: 6.86 MEQ/L
SODIUM [3]: 145.55 MEQ/L
TOTAL BILIRUBIN [3]: 0.2 mg/dL
TOTAL PROTEIN [3]: 5.75 G/DL
URIC ACID [3]: 1.65 mg/dL
ABSOLUTE BASOPHIL [4]: 0 CELLS/uL
ABSOLUTE EOSINOPHIL [4]: 33.67 CELLS/uL
ABSOLUTE LYMPHOCYTE [4]: 13088.67 CELLS/uL
ABSOLUTE MONOCYTE [4]: 0 CELLS/uL
ABSOLUTE SEGMENTED NEUTROPHIL [4]: 1544.33 CELLS/uL
BASOPHIL [4]: 0%
EOSINOPHIL [4]: 0.33%
ERYTHROCYTE COUNT [4]: 5.56 x10E6/uL
HEMATOCRIT [4]: 35.47%
HEMOGLOBIN [4]: 14.03 G/DL
LEUKOCYTE COUNT [4]: 14.67 x10E3/uL
LYMPHOCYTE [4]: 88.67%
MEAN CORPUSCULAR HEMOGLOBIN [4]: 25.27 pg
MEAN CORPUSCULAR HEMOGLOBIN CONCENTRATION [4]: 39.6 G/DL
MEAN CORPUSCULAR VOLUME [4]: 63.83 fL
MONOCYTE [4]: 0%
NEUTROPHIL [4]: 11%
NUCLEATED RED BLOOD CELLS [4]: 0.33 /100WBC
PLATELET COUNT [4]: 1393 x10E3/uL
ALANINE AMINOTRANSFERASE [4]: 71 u/L
ALBUMIN [4]: 4.07 G/DL
ALKALINE PHOSPHATASE [4]: 356.67 u/L
ASPARTATE AMINOTRANSFERASE [4]: 83.33 u/L
BLOOD UREA NITROGEN [4]: 16 mg/dL
CARBON DIOXIDE [4]: 23 mmol/L
CHLORIDE [4]: 106.33 MEQ/L
CHOLESTEROL [4]: 70.33 mg/dL
CREATINE PHOSPHOKINASE [4]: 456 u/L
CREATININE [4]: 0.21 mg/dL
GLUCOSE [4]: 189.33 mg/dL
LACTATE DEHYDROGENASE [4]: 144.67 u/L
LIPASE [4]: 10 u/L
PHOSPHORUS [4]: 12.87 mg/dL
POTASSIUM [4]: 5.46 MEQ/L
SODIUM [4]: 149.13 MEQ/L
TOTAL BILIRUBIN [4]: 0.27 mg/dL
TOTAL PROTEIN [4]: 5.83 G/DL
URIC ACID [4]: 1.7 mg/dL
